Positions count from the first letter of the chain named. Where two headings read alike, the source gives them in different places.
Tests used:
Assay type in all cases: cell-based
[1] = molecular target: T1, wild-type Androgen Receptor (AR-wt) (Homo sapiens, UniProt P10275); experiment: LNCaP-AR-wt ANT reporter assay (ARE firefly luciferase, antagonist mode); settings: for IC50: antagonist mode, 400 pM R-1881 challenge, −Log10(IC50 [Molar]), read-out: LNCaP-AR-wt ANT pIC50 (converted); for Emax: read-out: LNCaP-AR-wt ANT MAX % Inh
T1 construct: expressed in transfected cells; host or cells: LNCaP (LNCaP AR (cs))
T1 sequence (P10275 1-920): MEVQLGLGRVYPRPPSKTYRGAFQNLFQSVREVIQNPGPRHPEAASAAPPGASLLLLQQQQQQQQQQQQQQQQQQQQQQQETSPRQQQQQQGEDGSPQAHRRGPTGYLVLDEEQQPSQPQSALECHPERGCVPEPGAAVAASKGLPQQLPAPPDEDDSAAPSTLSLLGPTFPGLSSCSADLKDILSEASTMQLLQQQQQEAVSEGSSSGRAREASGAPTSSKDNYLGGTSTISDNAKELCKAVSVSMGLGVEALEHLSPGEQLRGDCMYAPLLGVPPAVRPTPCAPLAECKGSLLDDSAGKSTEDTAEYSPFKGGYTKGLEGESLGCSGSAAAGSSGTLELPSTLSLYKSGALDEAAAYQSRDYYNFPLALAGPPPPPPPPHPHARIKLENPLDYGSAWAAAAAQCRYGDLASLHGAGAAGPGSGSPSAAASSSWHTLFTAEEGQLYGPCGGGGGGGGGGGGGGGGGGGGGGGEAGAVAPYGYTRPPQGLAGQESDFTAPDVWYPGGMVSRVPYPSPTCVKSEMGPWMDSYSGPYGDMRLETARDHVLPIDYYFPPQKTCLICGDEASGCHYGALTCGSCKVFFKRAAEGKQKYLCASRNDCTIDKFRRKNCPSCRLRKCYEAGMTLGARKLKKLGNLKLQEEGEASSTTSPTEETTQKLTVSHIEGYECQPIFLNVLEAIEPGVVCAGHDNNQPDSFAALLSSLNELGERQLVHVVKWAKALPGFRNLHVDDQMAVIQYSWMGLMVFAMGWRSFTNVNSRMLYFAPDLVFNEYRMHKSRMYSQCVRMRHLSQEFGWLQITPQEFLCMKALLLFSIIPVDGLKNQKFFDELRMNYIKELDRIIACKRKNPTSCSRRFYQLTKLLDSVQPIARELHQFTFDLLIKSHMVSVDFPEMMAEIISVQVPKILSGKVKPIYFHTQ
How it was run: (§1)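 Cells: stable LNCaP pools, AR-wt or AR-F876L, in charcoal-stripped serum. Agonist challenge for antagonist mode was 400 pM (WT) and 600 pM (F876L). Luminescence was measured after 20-24 h incubation.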

[2] = molecular target: T2, F876L mutant Androgen Receptor (AR-F876L) (Homo sapiens, UniProt P10275, F877L); experiment: LNCaP-AR-F876L AG reporter assay (ARE firefly luciferase, agonist mode); settings: for Emax: read-out: LNCaP-AR-F876L AG MAX % Stim
T2 construct: expressed in transfected cells; host or cells: LNCaP (LNCaP F876L)
T2 sequence (P10275 1-920 F877L): T1 sequence (P10275 1-920) with F877L
How it was run: (§2)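 Read-out is luciferase luminescence taken 1 h after Steady-Glo addition, following 20-24 h compound exposure at 37 °C in LNCaP pools stably carrying wild-type or F876L AR. Cells were grown in charcoal-stripped serum. Antagonist wells received agonist at 400 pM (WT) or 600 pM (F876L).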

[3] = molecular target: T2, F876L mutant Androgen Receptor (AR-F876L); experiment: LNCaP-AR-F876L ANT reporter assay (ARE firefly luciferase, antagonist mode); settings: for Emax: read-out: LNCaP-AR-F876L ANT MAX % Inh; for IC50: read-out: LNCaP-AR-F876L ANT pIC50 (converted)
How it was run: as §1

[4] = molecular target: T1, wild-type Androgen Receptor (AR-wt); experiment: LNCaP-AR-wt AG reporter assay (ARE firefly luciferase, agonist mode); settings: for Emax: read-out: LNCaP-AR-wt AG MAX % Stim
How it was run: as §2

[5] = maximum % inhibition of R1881 control response over tested concentration range
[6] = agonist mode, −Log10(EC50 [Molar]), read-out: LNCaP-AR-F876L AG pEC50 (converted)
[7] = maximum % stimulation (agonist response) over tested concentration range
[8] = agonist mode, −Log10(EC50 [Molar]), read-out: LNCaP-AR-wt AG pEC50 (converted)

SMILES	IC50 [1] [nM]	Emax [1, 5] [%]	EC50 [2, 6] [nM]	Emax [2, 7] [%]	Emax [3, 5] [%]	IC50 [3] [nM]	EC50 [4, 8] [nM]	Emax [4, 7] [%]	Emax [1] [%]	EC50 [2] [nM]	Emax [2] [%]	Emax [3] [%]	EC50 [4] [nM]	Emax [4] [%]
N#Cc1ncc(N2C(=O)C3(CCC3)N(c3ccccc3)C2=S)cc1C(F)(F)F [Cpd 70, 5-(5-oxo-8-phenyl-7-thioxo-6,8-diazaspiro[3.4]octan-6-yl)-3-(trifluoromethyl)pyridine-2-carbonitrile]	741	–	–	–	–	513	–	–	99.2	> 15100	0.9	99.5	> 15100	0.3
CNC(=O)c1ccc(N2C(=S)N(c3cnc(C#N)c(C(F)F)c3)C(=O)C23CCC3)cc1F [Cpd 39, 4-[6-[6-cyano-5-(difluoromethyl)-3-pyridyl]-5-oxo-7-thioxo-6,8-diazaspiro[3.4]octan-8-yl]-2-fluoro-N-methyl-benzamide]	1820	97.2	> 15100	0.3	94.4	1550	> 15100	0.2	–	–	–	–	–	–
CN1CCN(Cc2ccc(N3C(=S)N(c4cnc(C#N)c(C(F)(F)F)c4)C(=O)C34CCC4)cc2)CC1 [Cpd 30, 5-[8-[4-[(4-methylpiperazin-1-yl)methyl]phenyl]-5-oxo-7-thioxo-6,8-diazaspiro[3.4]octan-6-yl]-3-(trifluoromethyl)pyridine-2-carbonitrile]	331	100	> 15100	0.1	98.8	162	> 15100	0.1	–	–	–	–	–	–
Cc1cc(N2C(=O)C3(CCC3)N(c3ccc(OC4CCN(C)CC4)cc3)C2=S)cnc1C#N [Cpd 4, 3-methyl-5-[8-[4-[(1-methyl-4-piperidyl)oxy]phenyl]-5-oxo-7-thioxo-6,8-diazaspiro[3.4]octan-6-yl]pyridine-2-carbonitrile]	1100	100	> 15100	-0.4	100	269	> 15100	0.2	–	–	–	–	–	–
Cc1ccc(NC(=O)c2ccc(N3C(=S)N(c4cnc(C#N)c(C)c4)C(=O)C34CCC4)cc2F)cn1 [Cpd 75, 4-[6-(6-cyano-5-methyl-3-pyridyl)-5-oxo-7-thioxo-6,8-diazaspiro[3.4]octan-8-yl]-2-fluoro-N-(6-methyl-3-pyridyl)benzamide]	562	–	–	–	–	145	–	–	101	> 15100	0.8	100	> 15100	0.8
Cc1cc(N2C(=O)C3(CCC3)N(c3ccc(-c4cncnc4)cc3)C2=S)cnc1C#N [Cpd 93, 3-methyl-5-[5-oxo-8-(4-pyrimidin-5-ylphenyl)-7-thioxo-6,8-diazaspiro[3.4]octan-6-yl]pyridine-2-carbonitrile]	407	–	–	–	–	234	–	–	100	> 15100	0.8	100	> 15100	0.9

Continued, in another order:

IC50 [1] [nM]	Emax [1, 5] [%]	EC50 [2, 6] [nM]	Emax [2, 7] [%]	Emax [3, 5] [%]	IC50 [3] [nM]	EC50 [4, 8] [nM]	Emax [4, 7] [%]	SMILES	Emax [1] [%]	EC50 [2] [nM]	Emax [2] [%]	Emax [3] [%]	EC50 [4] [nM]	Emax [4] [%]
813	94.5	> 15100	2.5	95.6	389	> 15100	2.3	CN1CCN(CCCNC(=O)c2ccc(N3C(=S)N(c4cnc(C#N)c(C(F)(F)F)c4)C(=O)C34CCC4)cc2F)CC1 [Cpd 108, 4-[6-[6-cyano-5-(trifluoromethyl)-3-pyridyl]-5-oxo-7-thioxo-6,8-diazaspiro[3.4]octan-8-yl]-2-fluoro-N-[3-(4-methylpiperazin-1-yl)propyl]benzamide]	–	–	–	–	–	–
245	102	> 15100	0.6	98.2	204	> 15100	0.1	CCCCNC(=O)c1ccc(N2C(=S)N(c3cnc(C#N)c(C(F)(F)F)c3)C(=O)C23CCC3)cc1F [Cpd 58, N-butyl-4-[6-[6-cyano-5-(trifluoromethyl)-3-pyridyl]-5-oxo-7-thioxo-6,8-diazaspiro[3.4]octan-8-yl]-2-fluoro-benzamide]	–	–	–	–	–	–
407	101	> 15100	0.8	100	347	> 15100	1.5	N#Cc1ncc(N2C(=O)C3(CCC3)N(c3ccc(C(=O)NCCc4cccnc4)c(F)c3)C2=S)cc1C(F)(F)F [Cpd 96, 4-[6-[6-cyano-5-(trifluoromethyl)-3-pyridyl]-5-oxo-7-thioxo-6,8-diazaspiro[3.4]octan-8-yl]-2-fluoro-N-[2-(3-pyridyl)ethyl]benzamide]	–	–	–	–	–	–
513	100	> 15100	1.4	98.6	631	> 15100	0.5	N#Cc1ncc(N2C(=O)C3(CCC3)N(c3cccc(F)c3)C2=S)cc1C(F)(F)F [Cpd 90, 5-[8-(3-fluorophenyl)-5-oxo-7-thioxo-6,8-diazaspiro[3.4]octan-6-yl]-3-(trifluoromethyl)pyridine-2-carbonitrile]	–	–	–	–	–	–
302	99.7	> 15100	6.2	90.5	437	> 15100	2.2	CS(=O)(=O)N1CCC(Oc2ccc(N3C(=S)N(c4cnc(C#N)c(C(F)(F)F)c4)C(=O)C34CCC4)cc2)CC1 [Cpd 122, 5-[8-[4-[(1-methylsulfonyl-4-piperidyl)oxy]phenyl]-5-oxo-7-thioxo-6,8-diazaspiro[3.4]octan-6-yl]-3-(trifluoromethyl)pyridine-2-carbonitrile]	–	–	–	–	–	–
562	89.1	> 15100	2.4	97.3	162	> 15100	2.1	N#Cc1ncc(N2C(=O)C3(CCC3)N(c3ccc(Oc4ncccn4)cc3)C2=S)cc1C(F)(F)F [Cpd 107, 5-[5-oxo-8-(4-pyrimidin-2-yloxyphenyl)-7-thioxo-6,8-diazaspiro[3.4]octan-6-yl]-3-(trifluoromethyl)pyridine-2-carbonitrile]	–	–	–	–	–	–

Reference: patent US20180008587A1, “THIOHYDANTOIN ANDROGEN RECEPTOR ANTAGONISTS FOR THE TREATMENT OF CANCER” (Jaressen Pharmaceutica NV, priority 2016, published 2018)
